# Assay results reported in patent US9458137B2, “Substituted indol-5-ol derivatives and their therapeutical applications” (NantBioScience, Inc., priority 2012, dated 2016).
# What was measured:
# [1] = tested on: TT human Thyroid carcinoma xenograft; experiment: TT thyroid carcinoma xenograft; assay type: in vivo, nude mouse; conditions: various concentrations; nude mouse, TT cell model
# Excerpt: (§1) This example assesses NTW-3475's anti-tumor activity using a scid mouse xenograft models for leukemias and nude mouse xenograft models of endometrial, pancreatic and thyroid carcinomas. NTW-3475 combination therapy was also studied in murine xenografts.
# FIGS. 36-38 depict the results of various concentrations of NTW-3456 on a nude mouse/xenograft the TT cell model of thyroid carcinoma.
# [2] = plasma concentration after oral administration (LCMS); assay type: in vivo, SCID mice; conditions: 24 hour after single oral 50 mg/kg; mice with MV4-11 tumor xenografts
# Method: (§2) The mice carrying the established MV4-11 tumor xenografts (tumor volume around 150 mm^3) were given an oral dose of 50 mg/kg NTW-3456. At 0, 1, 2, 8, 16, 24 hours after dosing, three were euthanized. The blood samples were collected and plasma was prepared with centrifuge for LCMS assay. And the tumors were harvested, homogenized in lysis buffer, immunoprecipitated with anti-FLT3 antibody FIG. 33.
# (§3) The curve (solid dot) is the plot of plasma concentration-time profiles of NTW-3456 after oral administration of 50 mg/kg.
# [3] = tested on: AN3 human endometrial carcinoma carcinoma xenograft; experiment: AN3 endometrial carcinoma xenograft; assay type: in vivo, nude mouse; conditions: various concentrations; AN3 nude mouse model
# Excerpt: as §1
# FIGS. 39-41 depict the results of various concentrations of NTW-3456 on the AN3 nude mouse/xenograft model of endometrial carcinoma.
# [4] = tested on: FLT3 phosphorylation (pFLT3) of MV4-11 tumors; experiment: FLT3 phosphorylation in MV4-11 tumor xenografts; assay type: in vivo, SCID mice; conditions: 24 hour after single oral 50 mg/kg
# Method: as §2, §3
# [5] = tested on: human K562 chronic myelogenous leukemia (CML) xenograft; experiment: K562 CML xenograft model; assay type: in vivo, SCID mice; conditions: various concentrations; scid mouse, K562 cells
# Method: The objective of the second study was to evaluate antitumor activities of novel multiple-kinase inhibitor NTW-3475 in human K562 chronic myelogenous leukemia (CML) xenograft model in female SCID mice.
# Four to six animals were randomly assigned to study groups. Each animal was weighed, and then injected subcutaneously in the left and right flank area with 0.1 ml of 8.0×10^7 K562 cells per mL.
# (§4) Each test or control animal was on a 5-day on, two-day off for two cycles treatment schedule. Tumor growth was measured with a digital hand held caliper twice weekly (once tumor emerges) prior to the first dosing and then two to three times weekly until euthanized. Animals were weighed prior to tumor cell injection, prior to dosing, two to three times weekly with tumor growth measurements, and prior to euthanasia.
# FIGS. 34 and 35 depict the results of various concentrations of NTW-3456 on a scid mouse/xenograft model of CML using K562 cells.
# [6] = tested on: Pane-1 model of pancreatic carcinoma; experiment: Panc-1 pancreatic carcinoma xenograft; assay type: in vivo; conditions: with or without Abraxane
# Excerpt: FIGS. 48 and 49 depict the results of various concentrations of NTW-3456, with or without Abraxane on a Pane-1 model of pancreatic carcinoma.
# [7] = tested on: human MIAPaCa-2 pancreatic carcinoma xenograft; experiment: MIAPaCa-2 pancreatic carcinoma xenograft; assay type: in vivo, athymic nude-Faxn1 mice
# Method: The objective of the third study was to evaluate antitumor activities of novel multiple-kinase inhibitor NTW-3475 in human MIAPaCa-2 pancreatic carcinoma xenograft in athymic nude-Faxn1 mice.
# Four animals were randomly assigned to study groups. Each animal was weighed, and then injected subcutaneously in the left and right flank area with 0.1 ml of 5.0×10^7 MIAPaCa-2 cells per mL.
# Each test or control animal was on a 5-day on, two-day off for two cycles treatment schedule with negative control vehicle, positive control Abraxane at 20 mg/kg or 25, 50 mg/kg of NTW-3475. Tumor growth was measured with a digital hand held caliper twice weekly (once tumor emerges) prior to the first dosing and then two to three times weekly until euthanized.
# FIGS. 42-44 depict the results of various concentrations of NTW-3456 on a nude mouse/xenograft the MIAPaCa-2 model of pancreatic carcinoma.
# FIGS. 45 and 46 depict the results of various concentrations of NTW-3456, with or without Abraxane on a MiaPaCa-2 model of pancreatic carcinoma.
# abl T315I mutant = abl T315I mutant (Homo sapiens, UniProt P00519, T315I); experiment: kinase activity in abl mutants; assay type: biochemical
# Excerpt: The first study was designed to assess the effect of NTW-3456 on kinase activity. Activity of NTW-3456 for a wide range of kinases and is shown FIGS. 22-24, including mutant kinases thought to play a large role in neoplastic transformation (FIGS. 23 and 24). In addition, NTW-3456 inhibited kinase activity in abl mutants for which no prior inhibitors have been FDA approved. In particular, NTW-3456 inhibits the 2 T315I mutant for which no kinase inhibitor had been known prior to NTW-3456.
# [8] = tested on: human MV411 human acute myelogenous leukemia (AML) xenograft; assay type: in vivo, SCID mice; conditions: various concentrations; scid mouse, MV411 cells
# Method: The objective of the first study was to evaluate antitumor activities of the novel multiple-kinase inhibitor NTW-3475 against human MV411 human acute myelogenous leukemia (AML) xenograft model in female SCID mice.
# Four or six animals were randomly assigned to each study group. Each animal was injected subcutaneously in the left and right flank area with 0.1 ml of 1.0×10^8 MV411 cells per mL
# as §4, with “animal was placed on a” for “animal was on a”, “two cycles of vehicle negative control or 25, 50 mg/kg of NTW-3475. Tumor growth” for “two cycles treatment schedule. Tumor growth”
# FIGS. 27-32 depict the results of various concentrations of NTW-3456 on tumor growth in scid mouse/xenograft model of AML using MV411 cells. […] This invention is characterized as it is here was a correlation between the inhibition of the pFLT3 kinase and growth control.
# [9] = tested on: human tumor cell lines of the cancer screening panel; experiment: in vitro antiproliferation, NCI 60 cancer cell line panel (SRB); assay type: cell-based; conditions: 48 h
# Method: NTW-3475 was also tested for its antiproliferative potential using cell lines from the NCI 60 cancer cell line panel.
# The human tumor cell lines of the cancer screening panel are grown in RPMI 1640 medium containing 5% fetal bovine serum and 2 mM L-glutamine. For a typical screening experiment, cells are inoculated into 96 well microtiter plates in 100 μL at plating densities ranging from 5,000 to 40,000 cells/well depending on the doubling time of individual cell lines. After cell inoculation, the microtiter plates are incubated at 37° C., 5% CO2, 95% air and 100% relative humidity for 24 h prior to addition of experimental drugs. […]
# Following drug addition, the plates are incubated for an additional 48 h at 37° C., 5% CO2, 95% air, and 100% relative humidity. […] Bound stain is subsequently solubilized with 10 mM trizma base, and the absorbance is read on an automated plate reader at a wavelength of 515 nm. […] Using the seven absorbance measurements [time zero, (Tz), control growth, (C), and test growth in the presence of drug at the five concentration levels (Ti)], the percentage growth is calculated at each of the drug concentrations levels. Percentage growth inhibition is calculated as: [(Ti-Tz)/(C-Tz)]×100 for concentrations for which Ti>/=Tz [(Ti-Tz)/Tz]×100 for concentrations for which Ti<Tz.
# Three dose response parameters are calculated for each experimental agent. […]
smiles,measurement,setting,value
C/C=C/c1cc(Nc2cc(N3CCN(C)CC3)nc(Oc3cc(F)c4[nH]c(C)cc4c3F)n2)n[nH]1 [NTW-3456],anti-tumor activity,[1],"significant anti-tumor activity, especially at higher doses"
same,plasma concentration,[2],7 nM
same,anti-tumor activity,[3],"significant anti-tumor activity, especially at higher doses"
same,inhibition of FLT3 phosphorylation of MV4-11 tumor,[4],more than 60%
same,anti-tumor activity,[5],"significant anti-tumor activity, especially at higher doses"
same,anti-tumor activity,[6],"significant anti-tumor activity, especially when used in combination with Abraxane"
same,anti-tumor activity,"[7]; various concentrations, single agent, nude mouse",some anti-tumor activity
same,anti-tumor activity,[7]; with or without Abraxane,"significant anti-tumor activity, especially when used in combination with Abraxane"
same,inhibition of kinase activity,abl T315I mutant,inhibits
same,anti-tumor activity,[8],"significant anti-tumor activity, especially at higher doses"
same,antiproliferative activity,[9],"seen against AML, CML, thyroid, enodmetrial, gastric, breast, and some pancreatic carcinoma cell lines"
